Measurements from patent US8193186B2, “Pyridopyrazines and the use thereof as kinase inhibitors” (AEterna Zentaris GmbH, priority 2003, dated 2012).
Counter-ions that a name gives are not always drawn.

System: c-Raf-Mek-Erk cascade
Test: c-Raf-Mek-Erk ELISA (cell-free reconstituted kinase cascade, Erk phosphorylation)
Format: biochemical, human
Conditions: inhibition of Erk phosphorylation, 1 mM ATP, 10 concentrations 31.6 pM-100 μM, read-out: IC50
Experimental: The inhibitory effect on the following human serine/threonine and tyrosine kinases of the compounds of the invention was tested in conventional kinase assays: PKB/Akt1, c-Raf-Mek-Erk, B-Raf-Mek-Erk, Mek-Erk, MAPKs, PDGFRbeta, Flt-3, c-Kit, c-Abl, KDR, FGFR1 and IGF1R. Both the full-length kinases and truncated fragments—but at least the cytoplasmic kinase domains—were employed. The kinases were prepared as recombinant fusion proteins with GST (glutathion S-transferase) or HIS Tag in Sf9 cell culture. Depending on the substrate type, the various kinase reactions were carried out in sandwich ELISA formates or by means of a simple substrate adsorption assay on 96-well Flashplates (Perkin Elmer).
The testing on substances on the c-Raf-Mek-Erk cascade is described in detail below. Selected test results for the c-Raf-Mek-Erk assays are then listed.
Procedure: c-Raf-Mek-Erk ELISA
Potential inhibitors were firstly investigated at a concentration of 20 μg/ml in initial single-dose determinations on 96-well microtiter plates (MTPs). Substances with >70% inhibition were employed for dose-response studies.
Reconstitution of the c-Raf-Mek-Erk cascade was quantified with the aid of a cell-free ELISA.
A typical kinase assay was carried out in a final volume of 50 μl with in each case 20-150 ng of Raf, Mek, Erk protein, 1 mM ATP, 10 mM MgCl2, 150 mM NaCl, 25 mM beta-glycerophosphate, 25 mM Hepes pH 7.5. Before the kinase reaction, the test substances were each preincubated singly with each of the three kinase proteins at room temperature for 30 minutes. For the kinase reaction, the kinases preincubated with test substance were combined and incubated at 26° C. for 30 minutes. The reaction was stopped by a final concentration of 2% SDS and 10 minutes at 50° C. in a heating block.
For the immunodetection, the reaction mixtures were transferred to 96-well MTPs coated with anti-Erk Ab(K-23, Santa Cruz Biotechnology, incubated at room temperature for 60 minutes and washed 3× with TBST. Anti-phospho-Erk Ab (#9106, New England Biolabs) 1:500 in 50 μl of TBST/1% BSA, was added and incubated at 4° C. overnight. After the MTPs had been washed 3× with TBST, secondary anti-mouse IgG^POD conjugate (#NA931, Pharmacia) 1:2500 was added, incubated at room temperature for 1 h and again washed 3× with TBST. For colorimetric detection of the kinase reaction, 50 μl of OPD (o-phenyldiamine dihydrochloride) chromogen buffer were pipetted into each of the wells and incubated at 37° C. for 30 minutes. The colour reaction was then determined in an ELISA reader at 492 nm.
The experimental determination of dose-response plots took place using the same experimental design with 10 semilogarithmically graded concentrations from 31.6 pM-100 μM. The IC50 values were calculated in GraphPadPrism.

IC50 [µM]	Structure (SMILES)
~100	C=C(C)CNC(=S)Nc1ccc2ncc(-c3ccc4ccccc4c3)nc2n1 [Example 6, 1-(2-Methylallyl)-3-(3-naphthalen-2-ylpyrido[2,3-b]pyrazin-6-yl)thiourea]
> 100	Cc1ccc(NC(=O)Nc2ccc3ncc(-c4ccccc4)nc3n2)cc1 [Example 33, 1-(3-Phenylpyrido[2,3-b]pyrazin-6-yl)-3-p-tolylurea]
> 100	CC(C)(C)NC(=S)Nc1ccc2ncc(-c3ccccc3)nc2n1 [Example 10, 1-tert-Butyl-3-(3-phenylpyrido[2,3-b]pyrazin-6-yl)thiourea]
~1	C=CCNC(=S)Nc1ccc2ncc(-c3ccccc3)nc2n1 [Example 1, 1-allyl-3-(3-phenylpyrido[2,3-b]pyrazin-6-yl)thiourea]
> 100	O=C(Nc1ccc(Cl)c(C(F)(F)F)c1)Nc1ccc2ncc(-c3ccccc3)nc2n1 [Example 34, 1-(4-Chloro-3-trifluoromethylphenyl)-3-(3-phenylpyrido[2,3-b]pyrazin-6-yl)urea]
16	C=CCNC(=S)Nc1ccc2ncc(-c3ccc4ccccc4c3)nc2n1 [Example 2, 1-Allyl-3-(3-naphthalen-2-ylpyrido[2,3-b]pyrazin-6-yl)thiourea]
> 100	COc1ccc(-c2cnc3ccc(NC(=S)Nc4ccc([N+](=O)[O-])cc4)nc3n2)cc1 [Example 9, 1-[3-(4-Methoxyphenyl)pyrido[2,3-b]pyrazin-6-yl]-3-(4-nitrophenyl)thiourea]
> 100	O=[N+]([O-])c1ccc(NC(=S)Nc2ccc3ncc(-c4ccc5ccccc5c4)nc3n2)cc1 [Example 8, 1-(3-Naphthalen-2-ylpyrido[2,3-b]pyrazin-6-yl)-3-(4-nitrophenyl)thiourea]
43	C=C(C)CNC(=S)Nc1ccc2ncc(-c3ccc(OC)cc3)nc2n1 [Example 7, 1-[3-(4-Methoxyphenyl)pyrido[2,3-b]pyrazin-6-yl]-3-(2-methylallyl)thiourea]
~1	C=CCNC(=S)Nc1ccc2ncc(-c3ccc(OC)cc3)nc2n1 [Example 3, 1-Allyl-3-[3-(4-methoxyphenyl)pyrido[2,3-b]pyrazin-6-yl]thiourea]
0.9	S=C(Nc1ccc2ncc(-c3ccccc3)nc2n1)NC1CC1 [Example 11, 1-Cyclopropyl-3-(3-phenylpyrido[2,3-b]pyrazin-6-yl)thiourea]
15	O=C(NCCN1CCOCC1)Nc1ccc2ncc(-c3ccccc3)nc2n1 [Example 35, 1-(2-Morpholin-4-ylethyl)-3-(3-phenylpyrido[2,3-b]pyrazin-6-yl)urea]
~1	C=C(C)CNC(=S)Nc1ccc2ncc(-c3ccccc3)nc2n1 [Example 5, 1-(2-Methylallyl)-3-(3-phenylpyrido[2,3-b]pyrazin-6-yl)thiourea]
~50	Fc1ccc(NC(=S)Nc2ccc3ncc(-c4ccccc4)nc3n2)cc1 [Example 14, 1-(4-Fluorophenyl)-3-(3-phenylpyrido[2,3-b]pyrazin-6-yl)thiourea]
> 100	S=C(NCc1ccccc1)Nc1ccc2ncc(-c3ccccc3)nc2n1 [Example 13, 1-Benzyl-3-(3-phenylpyrido[2,3-b]pyrazin-6-yl)thiourea]

Same assay, conditions: read-out: IC50 values, inhibition of Erk phosphorylation

IC50 [µM]	Structure (SMILES)
0.4	C=CCNC(=S)Nc1ccc2ncc(-c3ccc(O)cc3)nc2n1 [Example 4, 1-Allyl-3-[3-(4-hydroxyphenyl)pyrido[2,3-b]pyrazin-6-yl]thiourea hydrochloride]
0.4	CNC(=S)Nc1ccc2ncc(-c3ccccc3)nc2n1 [Example 12, 1-Methyl-3-(3-phenylpyrido[2,3-b]pyrazin-6-yl)thiourea]

System: not given
Test: not given
Conditions: not given

melting point	Structure (SMILES)
350 °C (dec.)	C#CCNC(=S)Nc1ccc2ncc(-c3ccc(O)cc3)nc2n1 [Example 24, 1-[3-(4-Hydroxyphenyl)pyrido[2,3-b]pyrazin-6-yl]-3-prop-2-ynylthiourea]
240 °C (dec.)	CC=CNC(=S)Nc1ccc2nc(-c3ccc(O)cc3)c(-c3ccc(O)cc3)nc2n1 [Example 28, 1-[2,3-Bis(4-hydroxyphenyl)pyrido[2,3-b]pyrazin-6-yl]-3-(propenyl)thiourea]
